The results in this text go back to patent US12570662B2, “Substituted pyrrolo[1,2-b]pyridazines as bifunctional degraders of interleukin-1 receptor-associated kinases” (Nurix Therapeutics, Inc., priority 2021, dated 2026).

A word on the DC50: it is the midpoint of the concentration-degradation curve. A low value points to degradation at low concentration. The term Dmax denotes the greatest extent of degradation seen.

Each structure is given as a SMILES string.

The target in this assay is T1, IRAK4 (Homo sapiens, UniProt Q9NWZ3).
T1 construct: C-terminal HiBiT-tagged Jurkat cells (polyclonal cell line or clone 8D5); endogenous in cells; host or cells: Jurkat cells (polyclonal cell line or clone 8D5), HiBiT-tagged
T1 sequence (Q9NWZ3 1-460): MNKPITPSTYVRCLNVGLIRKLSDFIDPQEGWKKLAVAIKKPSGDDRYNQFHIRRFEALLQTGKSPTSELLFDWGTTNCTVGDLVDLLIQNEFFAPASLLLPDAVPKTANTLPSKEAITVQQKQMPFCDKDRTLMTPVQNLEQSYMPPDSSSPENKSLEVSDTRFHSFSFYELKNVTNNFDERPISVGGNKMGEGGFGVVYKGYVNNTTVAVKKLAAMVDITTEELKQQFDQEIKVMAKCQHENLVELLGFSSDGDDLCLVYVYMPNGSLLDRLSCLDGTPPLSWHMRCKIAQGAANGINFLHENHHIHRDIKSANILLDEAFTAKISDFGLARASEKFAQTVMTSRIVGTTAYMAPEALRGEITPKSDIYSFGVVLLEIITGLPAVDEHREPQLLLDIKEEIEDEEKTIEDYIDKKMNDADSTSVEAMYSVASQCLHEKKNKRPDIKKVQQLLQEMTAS
Briefly: IRAK4 Degradation HiBit Assay. It is filed as cell-based. The following applies: C-terminal HiBiT-tagged Jurkat cells, 4 hrs incubation; for DC50: % IRAK4 remaining, four-parameter fit (IC50 used as DC50); for Dmax: from fit of % IRAK4 remaining, read-out: Dmax. The procedure, abridged:
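Jurkat cells carrying C-terminal HiBiT-tagged IRAK4 (polyclonal or clone 8D5) exposed to compound, 10 μM–0.1 nM final over 11 points, for 4 h at 32 °C. Remaining IRAK4 measured by lytic HiBiT/LgBiT luminescence relative to DMSO. DC50 and Dmax taken from four-parameter variable-slope fits.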

As for `N#Cc1cnn2c(-c3cc(NC4CC4)c(-c4nnc(N5CCN(CC6CCN(c7ccc(N8CCC(=O)NC8=O)cn7)CC6)CC5)s4)cn3)ccc2c1` [Example 78, 7-[4-(cyclopropylamino)-5-{5-[4-({1-[5-(2,4-dioxo-1,3-diazinan-1-yl)pyridin-2-yl]piperidin-4-yl}methyl)piperazin-1-yl]-1,3,4-thiadiazol-2-yl}pyridin-2-yl]pyrrolo[1,2-b]pyridazine-3-carbonitrile], the DC50 was 0.019 µM and the Dmax worked out at 111%.

For the molecule `CC1(Nc2cc(-c3ccc4cc(C#N)cnn34)ncc2-c2nnc(N3CCN(CC4CCN(c5ccc(N6CCC(=O)NC6=O)cn5)CC4)CC3)s2)COC1` [Example 80, 7-(5-{5-[4-({1-[5-(2,4-dioxo-1,3-diazinan-1-yl)pyridin-2-yl]piperidin-4-yl}methyl)piperazin-1-yl]-1,3,4-thiadiazol-2-yl}-4-[(3-methyloxetan-3-yl)amino]pyridin-2-yl)pyrrolo[1,2-b]pyridazine-3-carbonitrile], the DC50 was determined as 0.084 µM and the Dmax was determined as 90%.

`N#Cc1cnn2c(-c3cc(NC4CC4)c(-c4nnc(N5CCN(CC6CCN(c7ccc(N8CCC(=O)NC8=O)cc7)CC6)CC5)s4)cn3)ccc2c1` [Example 83, 7-[4-(cyclopropylamino)-5-{5-[4-({1-[4-(2,4-dioxo-1,3-diazinan-1-yl)phenyl]piperidin-4-yl}methyl)piperazin-1-yl]-1,3,4-thiadiazol-2-yl}pyridin-2-yl]pyrrolo[1,2-b]pyridazine-3-carbonitrile]: the DC50 stood at 0.052 µM and the Dmax was found to be 80%.

Turning to `N#Cc1cnn2c(-c3cc(NC4CCOCC4)c(-c4nnc(N5CC6CCC(C5)N6CC5CCN(c6ccc(N7CCC(=O)NC7=O)cc6)CC5)s4)cn3)ccc2c1` [Example 84, 7-(5-{5-[8-({1-[4-(2,4-dioxo-1,3-diazinan-1-yl)phenyl]piperidin-4-yl}methyl)-3,8-diazabicyclo[3.2.1]octan-3-yl]-1,3,4-thiadiazol-2-yl}-4-[(oxan-4-yl)amino]pyridin-2-yl)pyrrolo[1,2-b]pyridazine-3-carbonitrile], the DC50 came to 0.024 µM and the Dmax was 77%.

Take `N#Cc1cnn2c(-c3cc(NC4CCOCC4)c(-c4nnc(N5CC6CCC(C5)N6CC5CCN(c6ccc(N7CCC(=O)NC7=O)cn6)CC5)s4)cn3)ccc2c1` [Example 86, 7-(5-{5-[8-({1-[5-(2,4-dioxo-1,3-diazinan-1-yl)pyridin-2-yl]piperidin-4-yl}methyl)-3,8-diazabicyclo[3.2.1]octan-3-yl]-1,3,4-thiadiazol-2-yl}-4-[(oxan-4-yl)amino]pyridin-2-yl)pyrrolo[1,2-b]pyridazine-3-carbonitrile]: the DC50 worked out at 0.012 µM and the Dmax was determined as 111%.

Regarding `N#Cc1cnn2c(-c3cc(NC4CC4)c(-c4nnc(N5CC6CCC(C5)N6CC5CCN(c6ccc(N7CCC(=O)NC7=O)cn6)CC5)s4)cn3)ccc2c1` [Example 115, 7-[4-(cyclopropylamino)-5-{5-[8-({1-[5-(2,4-dioxo-1,3-diazinan-1-yl)pyridin-2-yl]piperidin-4-yl}methyl)-3,8-diazabicyclo[3.2.1]octan-3-yl]-1,3,4-thiadiazol-2-yl}pyridin-2-yl]pyrrolo[1,2-b]pyridazine-3-carbonitrile], it took 0.048 µM to reach half-maximal degradation (DC50) and the Dmax was determined as 109%.
